Experiments:
Type in all cases: cell-based
[1] = test system: GTP-bound KRAS; test: RAS-binding domain pull down assay; settings: 400 of compound, 24 hour treatment
Protocol: KRAS activation was determined using the rat sarcoma (RAS) activation assay kit (Millipore, 17-218) in accordance with the manufacturer's guidelines. Cell lysates were prepared using Mg2^+ Lysis/wash buffer (MLB). Samples were incubated with 10 μg RAS assay reagent and incubated for 45 minutes at 4° C. Agarose beads were pelleted by centrifugation and washed 3 times with MLB. Agarose beads were re-suspended in loading buffer. Samples were subjected to western blotting, as previously described, and the blots were probed using anti-K-Ras antibody (sc-30, Santa Cruz Biotechnology (SANTA)).

[2] = test system: H2122 NSCLC cells; test: MTT cytotoxicity assay
Protocol: (§1) H2122, A549 and H358 non-small cell lung cancer (NSCLC) cells were purchased from ATCC and cultivated with Roswell Park Memorial Institute (RPMI) 1640 medium supplemented with 10% fetal bovine serum (Gibco, Big Cabin, Oklahoma, ME, USA), 100 units/mL penicillin and 100 μg/mL streptomycin (Gibco, Big Cabin, Oklahoma, ME, USA). All the cells were cultivated at 37° C. in a humidified atmosphere of 5% CO2.
(§2) Cells were seeded in a 96-well microplate with 3000, 4000 or 5000 cells/well confluence and cultured overnight for cell adhesion. Different concentrations of compound K017-0105 were added to the microplates, and the microplates were incubated for 24, 48 or 72 hours (h). Each concentration of compound K017-0105 was repeated in triplicate. 10 μL 3-(4,5-Dimethylthiazol-2-yl)-2,5-Diphenyltetrazolium Bromide (MTT) (5 mg/mL) solution was added to every well. After incubating for 4 h, 100 μL dimethyl sulfoxide (DMSO) was added to each well. After shaking for 15 minutes, the absorbance of the microplate was measured at 570 nm (absorbance) and 650 nm (reference) by a microplate reader (Tecan, Morrisville, N.C., USA).

[3] = test system: A549 NSCLC cells; test: MTT cytotoxicity assay
Protocol: as §1, §2

[4] = test system: H358 NSCLC cells; test: MTT cytotoxicity assay
Protocol: as §1, §2

[5] = test system: p-CRAF, p-Akt and p-ERK; test: Western blot analysis of KRAS downstream signaling; settings: compared with untreated control cells
Protocol: H2122, H358 and A549 NSCLC cells were rinsed with phosphate-buffered saline (PBS) and lysed in radioimmunoprecipitation assay (RIPA) lysis buffer (Beyotime, China) supplemented with a protease and phosphatase inhibitor cocktail (Thermo Scientific 78440, USA) once for 30 minutes. Cell lysates were centrifuged at 12,000 g for 10 minutes at 4° C. The supernatant was collected, and the protein concentration was calculated with a Bio-Rad detergent compatible (DC™) protein assay kit (Bio-Rad, Philadelphia, Pa., USA). 30 μg protein lysates were loaded and separated by 10% sodium dodecyl sulfate (SDS)-polyacrylamide gel electrophoresis and transferred to a nitrocellulose (NC) membrane. The membranes were incubated with the primary antibody (1:2000) and then with a fluorescence-conjugated secondary antibody (1:10000). Glyceraldehyde 3-phosphate dehydrogenase (GAPDH) was used as the loading control for normalization. The signal of the membranes was scanned with a LI-COR Odyssey Scanner (Belfast, Me., USA).

[6] = test system: H2122 NSCLC cells; test: Apoptosis analysis (Annexin V/PI flow cytometry); settings: H2122 cells, 0, 5, 10, 20 and 40 μM for 24 h
Protocol: (§3) H2122, A549 and H358 NSCLC cells were plated in a 6-well plate with 2.0×10^5 cells/well and cultured overnight for attachment. After treatment with compound K017-0105 at 0, 5, 10, 20, 40 μM for 24 h, all cells were harvested by trypsinization and centrifuged at room temperature at 1000 rotations per minute (RPM) for 5 minutes. Cells were re-suspended in 100 μL 1× binding buffer and stained with Annexin V and propidium iodide (PI) staining solution for 15 minutes at room temperature in the dark. Apoptotic cells were quantitatively counted by a BD FACSAria III Flow Cytometer.
(§4) The ability of compound K017-0105 in inducing apoptosis in H2122, H358 and A549 NSCLC cells was examined. H2122, H358 and A549 NSCLC cells were treated with compound K017-0105 at different concentrations (0, 5, 10, 20 and 40 μM) for 24 h. These cells were stained with Annexin V-FITC/PI, and […] was detected by flow cytometry.

[7] = test system: A549 NSCLC cells; test: Apoptosis analysis (Annexin V/PI flow cytometry); settings: A549 cells, 0, 5, 10, 20 and 40 μM for 24 h
Protocol: as §3, §4

[8] = test system: H358 NSCLC cells; test: Apoptosis analysis (Annexin V/PI flow cytometry); settings: H358 cells, 0, 5, 10, 20 and 40 μM for 24 h
Protocol: as §3, §4

[9] = test system: normal CCD-19Lu lung cells; test: MTT cytotoxicity assay; settings: 72 h
Protocol: as §2

O=C1Nc2ccccc2/C1=N\Nc1ccc(F)c(Cl)c1 [compound K017-0105]
level of GTP-bound KRAS ([1]; A549 NSCLC cells): inhibited
level of GTP-bound KRAS ([1]; H358 NSCLC cells): inhibited
level of GTP-bound KRAS ([1]; H2122 NSCLC cells): inhibited
IC50 ([2]; Homo sapiens, NCI-H2122, 72 h treatment, mean±SEM): 7.19 ± 1.6 µM
cytotoxicity ([2]; MTT, 72 h): significant cytotoxicity
IC50 ([3]; Homo sapiens, 72 h treatment, mean±SEM): 8.28 ± 2.64 µM
cytotoxicity ([3]; MTT, 72 h): significant cytotoxicity
IC50 ([4]; Homo sapiens, NCI-H358, 72 h treatment, mean±SEM): 8.18 ± 1.29 µM
cytotoxicity ([4]; MTT, 72 h): significant cytotoxicity
levels of p-CRAF, p-Akt and p-ERK ([5]; A549 NSCLC cells): decreased
levels of p-CRAF, p-Akt and p-ERK ([5]; H358 NSCLC cells): decreased
levels of p-CRAF, p-Akt and p-ERK ([5]; H2122 NSCLC cells): decreased
apoptosis [6]: significantly induced apoptosis
apoptosis [7]: significantly induced apoptosis
apoptosis [8]: significantly induced apoptosis
cytotoxicity [9]: no cytotoxicity

From patent US9884047B1, “Method of treating lung cancer” (Macau University of Science and Technology, priority 2017, dated 2018)
